Laboratory results published in patent publication US6440421B1, “Treatment of bone disorders with adrenomedullin or adrenomedullin agonists” (Auchkland Uniservices Limited, priority 1996, dated 2002).
No end group written: not given here.

Legend:
[1] = system: fetal rat osteoblast-like cells; experiment: Osteoblast proliferation assay, cell counts; assay type: cell-based; details: for cell number relative to control osteoblasts: primary cultures of osteoblasts, final concentration of 1 nm
Procedure: (§1) Osteoblasts were isolated by collagenase digestion from 20-day fetal rat calvariae. The calvariae were then treated twice with phosphate buffered saline (PBS; Gibco, Grand Island, N.Y.) containing 3 Mm […] (EDTA; Sigma Chemical Co., St. Louis, Mo.) for 15 minutes at 37° C. in a shaking water bath. After washing once in PBS, 3 ml of 1 mg/ml collagenase (Sigma Chemical Co.) was added to the calvariae for 10 minutes at 37° C. After discarding the supernatant, the calvariae were treated twice with 2 mg/ml collagenase (30 mins, 37° C.). The supernatants were then centrifuged and the cells washed in Dulbecco's Modified Eagle's Medium (DMEM; Gibco Labs, Grand Island, N.Y.) with 10% fetal calf serum (FCS), suspended in further DMEM/10% FCS, and placed in […] flasks. The cells were incubated under 5% CO2 and 95% air at 37° C.
(§2) Confluence was reached by 5-6 days, at which time the cells were subcultured. After trypsinization using trypsin-EDTA (0.05%/0.53 […]; Gibco Labs, Grand Island, N.Y.), the cells were rinsed in Minimal Essential Medium (MEM; Gibco Labs) with 10% FCS and resuspended in MEM with 5% FCS, then seeded (10^5 cells/ml) in 24-well plates (0.5 ml cell suspension per well, i.e., 5×10^4 cells/well)
(§3) Cell proliferation studies (i.e., cell counts and thymidine incorporation) were performed both in actively-growing and growth-arrested cell populations. To produce actively-growing cells, subconfluent populations (24 hrs after subculturing) were changed to fresh MEM which contained 1% FCS and the test compounds. To produce growth-arrested cells, subconfluent populations were changed to serum-free medium with 0.1% bovine serum albumin plus the test compounds.
The effect of adrenomedullin on proliferation of fetal rat osteoblast-like cells was first assessed by the measurement of cell numbers. Cell counts were analyzed at 6, 24, and 48 hours after addition of the test compound or vehicle. The cell numbers were determined after removing cells from the wells by exposure to trypsin/EDTA (0.05%/0.53 Mm) for 5 minutes at 37° C. Counting was performed in a hemocytometer chamber. Results were expressed per well. […] This stimulation was maintained for at least 48 hours.

[2] = system: fetal rat osteoblast-like cells; experiment: DNA synthesis, [3H]-thymidine incorporation into osteoblasts; assay type: cell-based; details: for thymidine incorporation: primary cultures of osteoblasts, 1 nm; for [3H]-thymidine incorporation: 10^−10M, 24 hours
Procedure: as §1, §2, §3
The effect of adrenomedullin on DNA synthesis in osteoblasts was then assessed by the measurement of [^3H]-thymidine incorporation into isolated fetal rat osteoblast-like cells. [^3H]-thymidine incorporation into actively-growing and growth-arrested cells was assessed by pulsing the cells with [^3H]-thymidine (1 μCi/ml) (Amersham, Arlington Heights, Ill.) two hours before the end of the experimental incubation. The experiment was terminated at 6, 24, or 48 hours by washing the cells in MEM with cold thymidine followed by 10% trichloroacetic acid. The precipitate was washed twice with ethanol:ether (3:1), and the wells were desiccated at room temperature. The residue was redissolved in 0.5 M KOH at 85° C. for 30 mins, neutralized with 1 M Hcl, and an aliquot counted for radioactivity. Results were expressed as cpm per well.

neonatal mouse calvariae [3] = experiment: Bone organ culture, bone resorption (45Ca release); assay type: cell-based; details: 48 hours, concentrations of 10−7 M to 10^−10 M
Procedure: (§4) Bone resorption studies were carried out in neonatal mouse calvariae as previously described (Reid, et al., Endocrinology 126:1416-1420 (1990)). Mice were injected subcutaneously with 5 μCi ^45Ca (Amersham) at 2 days of age, and hemi-calvariae were dissected out 4 days later. Hemi-calvariae were pre-incubated for 24 hours in medium 199 (Gibco BRL, Grand Island, N.Y.) with 0.1% bovine serum albumin, then changed to fresh medium containing adrenomedullin or control vehicle. Incubation was continued for a further 48 hours. In the last 4 hours of incubation [^3H]-thymidine was incorporated into the organ cultures as described previously (Lowe, et al., Calif. Tissue Int. 49-394-397 (1991)). There were 5-7 calvariae in each group.

adult mouse calvariae = experiment: Local effects on bone histology in vivo, histomorphometry of hemicalvariae
Procedure: The local effects of adrenomedullin on bone histology in vivo were assessed in adult mice using a previously described model (Cornish et al., Endocrinology 132:1359-1366, 1993). Sexually mature male ARC Swiss Webster mice aged between 40 and 50 days and weighing […] were given injections (25 μl) over the periosteum of the right hemicalvariae for 5 consecutive days. […] The animals were maintained on a low calcium diet (0.1%) from 5 days prior to the first injection. […] These doses were chosen based on experience with other bone-active peptides in this model. Animals in the control group (n=16) were injected with vehicle (water) only. All animals were sacrificed 1 week following the last injection. The study had the approval of the local institutional review board.
The calvariae were dissected free of soft tissue, and gross morphology was assessed by examination of the intact calvariae under a dissection microscope. Bone tissue was fixed in 10% phosphate-buffered formalin, dehydrated in a graded series of ethanol solutions and embedded undecalcified in methyl methacrylate resin. Sections (4 μm thick) were cut on a Leitz rotary microtome (Leica Instruments, Nussloch, Germany) using a tungsten-carbide knife, then mounted on gelatin-coated slides and air-dried. The sections were stained with a Goldner tri-chrome stain and examined using an Olympus BX 50 microscope (Olympus Optical Co Ltd, Tokyo, Japan) which was attached to an Osteomeasure Image Analyzer (Osteometrics Inc., Atlanta, Ga.). Histomorphometric analyzes were made of three adjacent fields (using a 20× objective) in each hemicalvaria.
The parameters assessed are as defined by the American Society for Bone and Mineral Research (Parfitt et al. J. Bone Miner. Res. 2:595-610, (1987)), and are expressed per mm of calvarial length. Osteoblasts were defined as cells immediately adjacent to osteoid. Osteoclast numbers included only multinucleated cells. The various surface estimates were based on measurements of both periosteal and intramembranous surfaces: those eroded by osteoclasts (eroded perimeter), those immediately adjacent to osteoclasts (osteoclast perimeter), and those immediately adjacent to osteoblasts (osteoblast perimeter). The precision of these histomorphometric measurements in these studies (expressed as coefficients of variation of paired. measurements) are as follows: mineralized bone area 1.3%, osteoid area 6.9%, osteoblast perimeter 6.8%, osteoblast number 1.7%, eroded perimeter 6.7%, osteoclast perimeter 7.9%, osteoclast number <1.0%, and calvarial length 0.2%. All measurements were made by one operator who was blinded to the treatment group of each bone.
In the in vivo experiment, the primary end-point for each histomorphometric index was the determination of whether it was different in the injected right hemicalvaria from the contralateral, uninjected bone of the same animal. The absolute values of each histomorphometric index are presented for the injected and uninjected hemicalvariae by treatment group in Tables 1-3. […] Tables 1-3. Effects of Adrenomedullin on Histomorphometric Indices in Adult Mouse Calvariae in vivo*

neonatal mouse calvariae [4] = experiment: Bone organ culture, [3H]-thymidine incorporation; assay type: cell-based; details: 48 hours, 10−7 M to 10^−10 M, same experiments
Procedure: as §4

[5] = Injected hemicalvaria, Adrenomedullin 4 × 10^−10 mol, mean, per mm of calvarial length
[6] = Uninjected hemicalvaria, Adrenomedullin 4 × 10^−10 mol, mean, per mm of calvarial length
[7] = in the presence of adrenomedullin

ADM(28-40) (HQIYQFTDKDKDN; listed as Homo sapiens) [adrenomedullin fragment, residues 28-40]
cell number relative to control osteoblasts [1]: statistically significant increase | thymidine incorporation [2]: increased

ADM(32-52) (QFTDKDKDNVAPRSKISPQGY; listed as Homo sapiens) [adrenomedullin fragment, residues 32-52]
cell number relative to control osteoblasts [1]: statistically significant increase | thymidine incorporation [2]: increased

adrenomedullin
duration for which stimulation of cell number was maintained ([1]; 1% FCS, actively-growing cells): at least 48 hours | adrenomedullin concentration at which a significant increase in cell number was observed ([1]; 24 hours, 1% FCS, actively-growing cells): ≥ 10^−12 M | increase in actively-growing osteoblasts (cell number) ([1]; 24 hours, medium containing 1% FCS, actively-growing cells): dose-dependent increase | [3H]-thymidine incorporation ([2]; actively-growing cells): significantly stimulated | [3H]-thymidine incorporation ([2]; growth-arrested cells): significantly stimulated | 45Ca release from prelabeled calvariae (neonatal mouse calvariae [3]): no significant change | Bone Area (adult mouse calvariae; [5]): 0.128 | Eroded Pm (adult mouse calvariae; [5]): 0.67 | Number of Obs (adult mouse calvariae; [5]): 105 | Number of Ocs (adult mouse calvariae; [5]): 5.0 | Ob Perimeter (adult mouse calvariae; [5]): 0.33 | Oc Pm (adult mouse calvariae; [5]): 0.15 | Osteoid Area (adult mouse calvariae; [5]): 0.0032 | Periosteal Area (adult mouse calvariae; [5]): 0.012 | Periosteal Area (adult mouse calvariae; P=0.54): not changed | Bone Area (adult mouse calvariae; [6]): 0.114 | Eroded Pm (adult mouse calvariae; [6]): 0.67 | Number of Obs (adult mouse calvariae; [6]): 61 | Number of Ocs (adult mouse calvariae; [6]): 4.4 | Ob Perimeter (adult mouse calvariae; [6]): 0.56 | Oc Pm (adult mouse calvariae; [6]): 0.12 | Osteoid Area (adult mouse calvariae; [6]): 0.0012 | Periosteal Area (adult mouse calvariae; [6]): 0.011 | indices of osteoblast activity, ratio of injected to uninjected halves of each calvaria (adult mouse calvariae; either dose of adrenomedullin, 5 daily local injections): two- to three-fold increases | increase of mineralized bone area (adult mouse calvariae; higher dose of adrenomedullin): 13.6% | eroded perimeter, upward trend, ratio of injected to uninjected (adult mouse calvariae; [7]): significant | resorption indices, ratio of injected to uninjected (adult mouse calvariae; [7]): slight upward trends | [3H]-thymidine incorporation (neonatal mouse calvariae [4]): significantly increased

adrenomedullin(27-52) (AHQIYQFTDKDKDNVAPRSKISPQGY-NH2; listed as Homo sapiens) [fragment of adrenomedullin, residues 27-52, carboxyl terminal amidated]
cell number relative to control osteoblasts [1]: statistically significant increase | thymidine incorporation [2]: increased
